Source: ChEMBL document CHEMBL4651402, “Screening of ~5500 FDA-approved drugs and clinical candidates for anti-SARS-CoV-2 activity” (2021)

System: SARS-CoV-2
Assay: microbe, parasite or virus in culture
Conditions: Severe acute respiratory syndrome coronavirus 2, Vero C1008, 48 h

SMILES | IC50 | IC50 (read-out: pIC50 (converted))
CC(C)(C)NC[C@H](O)COc1cccc2c1CCCC2=O [LEVOBUNOLOL] | > 20 µM | > 20 µM
C[C@@H]1CN([C@H]2CC[C@](C#N)(c3ccc(F)cc3)CC2)CC[C@]1(C(=O)O)c1ccccc1 [LEVOCABASTINE] | > 20 µM | > 20 µM
C[N+](C)(C)C[C@H](O)CC(=O)[O-] [LEVOCARNITINE] | > 20 µM | > 20 µM
N[C@@H](Cc1ccc(O)c(O)c1)C(=O)O [LEVODOPA] | > 20 µM | > 20 µM
C[C@@H](CN1CCOCC1)C(C(=O)N1CCCC1)(c1ccccc1)c1ccccc1 [LEVOMORAMIDE] | > 20 µM | > 20 µM
CC(=O)Oc1cc(O[C@H](C)CCCc2ccccc2)cc2c1[C@@H]1C[C@H](O)CC[C@H]1[C@H](C)N2 [LEVONANTRADOL] | > 20 µM | > 20 µM
C[C@H](N)[C@H](O)c1ccc(O)c(O)c1 [LEVONORDEFRIN] | > 20 µM | > 20 µM
CN[C@@H](C)CC1CCCCC1 [LEVOPROPYLHEXEDRINE] | > 20 µM | > 20 µM
CN1CC[C@]23CCCC[C@H]2[C@H]1Cc1ccc(O)cc13 [LEVORPHANOL] | > 20 µM | > 20 µM
C[C@@H]1CC(=O)NN=C1c1ccc(NN=C(C#N)C#N)cc1 [LEVOSIMENDAN] | > 20 µM | > 20 µM
N[C@@H](Cc1cc(I)c(Oc2cc(I)c(O)c(I)c2)c(I)c1)C(=O)O [LEVOTHYROXINE] | > 20 µM | > 20 µM
Clc1cccc(C(c2ccc3[nH]cnc3c2)n2ccnc2)c1 (stereo not drawn) [LIAROZOLE] | > 20 µM | > 20 µM
C=CC(C)(C)c1cc(/C=C/C(=O)c2ccc(O)cc2)c(OC)cc1O [LICOAGROCHACONE A] | > 20 µM | > 20 µM
CC1(C)Cc2c(-c3ccccc3)c(-c3ccc(Cl)cc3)c(CC(=O)O)n2C1 [LICOFELONE] | > 20 µM | > 20 µM
CNC(=N)NC(=O)Nc1c(C)cccc1C [LIDAMIDINE] | > 20 µM | > 20 µM
COc1ccc(C2CNC(=O)C2)cc1OCCCN1CCC(C(=O)c2ccc(F)cc2)CC1 (stereo not drawn) [LIDANSERIN] | > 20 µM | > 20 µM
CCN(CC)CC(=O)Nc1c(C)cccc1C [LIDOCAINE] | > 20 µM | > 20 µM
Cc1cccc(C)c1NC(=O)CN(CC(=O)O)CC(=O)O [LIDOFENIN] | > 20 µM | > 20 µM
Cc1ccc(-c2nc(CN3CCN(C(c4ccccc4)c4ccccc4)CC3)c(C)[nH]2)cc1 [LIFARIZINE] | > 20 µM | > 20 µM
Cc1nc(C)c(C)nc1C [LIGUSTRAZINE] | > 20 µM | > 20 µM
CC(C)(C)c1ccc(Oc2ccc(N)cn2)cc1 [LIMANTRAFIN] | > 20 µM | > 20 µM
CC#CCn1c(N2CCC[C@@H](N)C2)nc2c1c(=O)n(Cc1nc(C)c3ccccc3n1)c(=O)n2C [LINAGLIPTIN] | > 20 µM | > 20 µM
Cc1cccc(C)c1CNc1cc(C(=O)NCCO)cn2c(C)c(C)nc12 [LINAPRAZAN] | > 20 µM | > 20 µM
CCC[C@@H]1C[C@@H](C(=O)N[C@@H]([C@H]2O[C@H](SC)[C@H](O)[C@@H](O)[C@H]2O)[C@@H](C)O)N(C)C1 [LINCOMYCIN] | > 20 µM | > 20 µM
CC(=O)NC[C@H]1CN(c2ccc(N3CCOCC3)c(F)c2)C(=O)O1 [LINEZOLID] | > 20 µM | > 20 µM

SMILES | IC50 | IC50 (read-out: pIC50 (converted))
Cc1ccc(F)c(NC(=O)Nc2ccc(-c3cccc4[nH]nc(N)c34)cc2)c1 [LINIFANIB] | > 20 µM | > 20 µM
CN1CCC/C1=N\C(=N\c1ccccc1)N1CCOCC1 [LINOGLIRIDE] | > 20 µM | > 20 µM
CCCCC/C=C\C/C=C\CCCCCCCC(=O)O [LINOLEIC ACID] | > 20 µM | > 20 µM
O=C1N(c2ccccc2)c2ccccc2C1(Cc1ccncc1)Cc1ccncc1 [LINOPIRDINE] | > 20 µM | > 20 µM
[NH-]c1c[n+](N2CCOCC2)no1 [LINSIDOMINE] | > 20 µM | > 20 µM
C[C@]1(O)C[C@@H](c2nc(-c3ccc4ccc(-c5ccccc5)nc4c3)c3c(N)nccn32)C1 [LINSITINIB] | > 20 µM | > 20 µM
CCN1CCN=C1CNC(=O)c1cc(Cl)c(N)cc1OC [LINTOPRIDE] | > 20 µM | > 20 µM
O=C(O)CCCCC1CCSS1 (stereo not drawn) [LIPOIC ACID, ALPHA] | > 20 µM | > 20 µM
COc1cccc(N(C)C(=S)Oc2ccc3c(c2)CCCC3)n1 [LIRANAFTATE] | > 20 µM | > 20 µM
NCCCC[C@H](N[C@@H](CCc1ccccc1)C(=O)O)C(=O)N1CCC[C@H]1C(=O)O [LISINOPRIL ANHYDROUS] | > 20 µM | > 20 µM
C[C@@H](O)CCCCn1c(=O)c2c(ncn2C)n(C)c1=O [LISOFYLLINE] | > 20 µM | > 20 µM
c1ccc2cc(COC3CCNCC3)ccc2c1 [LITOXETINE] | > 20 µM | > 20 µM
CN1[C@@H](CC(=O)c2ccccc2)CCC[C@H]1C[C@H](O)c1ccccc1 [LOBELINE] | > 20 µM | > 20 µM
CCOC(=O)Nc1nc2ccccc2[nH]1 [LOBENDAZOLE] | > 20 µM | > 20 µM
N#Cc1cc(NC(=O)C(=O)O)c(Cl)c(NC(=O)C(=O)O)c1 [LODOXAMIDE] | > 20 µM | > 20 µM
CN(CCCN1c2ccccc2CCc2ccccc21)CC(=O)c1ccc(Cl)cc1 [LOFEPRAMINE] | > 20 µM | > 20 µM
CC(Oc1c(Cl)cccc1Cl)C1=NCCN1 (stereo not drawn) [LOFEXIDINE] | > 20 µM | > 20 µM
Fc1ccc(NC(=S)Nc2cc(Cl)cc(Cl)c2)cc1 [LOFLUCARBAN] | > 20 µM | > 20 µM
CCn1cc(C(=O)O)c(=O)c2cc(F)c(N3CCNC(C)C3)c(F)c21 (stereo not drawn) [LOMEFLOXACIN] | > 20 µM | > 20 µM
Nc1nc(OCc2cc(Br)cs2)c2[nH]cnc2n1 [LOMEGUATRIB] | > 20 µM | > 20 µM
COc1ccc(Cl)c2c1CCCC2N(C)C (stereo not drawn) [LOMETRALINE] | > 20 µM | > 20 µM
O=C(NC1CCN(CCCCC2(C(=O)NCC(F)(F)F)c3ccccc3-c3ccccc32)CC1)c1ccccc1-c1ccc(C(F)(F)F)cc1 [LOMITAPIDE] | > 20 µM | > 20 µM
O=NN(CCCl)C(=O)NC1CCCCC1 [LOMUSTINE] | > 20 µM | > 20 µM
NC(=O)N1CCC(CC(=O)N2CCC([C@H]3c4ncc(Br)cc4CCc4cc(Cl)cc(Br)c43)CC2)CC1 [LONAFARNIB] | > 20 µM | > 20 µM
COc1c(OC)c(OC(C)=O)c2cc(Cl)ccc2c1OC(C)=O [LONAPALENE] | > 20 µM | > 20 µM

SMILES | IC50 | IC50 (read-out: pIC50 (converted))
O=C(O)Cc1cn(-c2ccccc2)nc1-c1ccc(Cl)cc1 [LONAZOLAC] | > 20 µM | > 20 µM
O=C(O)c1nn(Cc2ccc(Cl)cc2Cl)c2ccccc12 [LONIDAMINE] | > 20 µM | > 20 µM
CN1CCN(/C=C2\N=C3CN=C(c4ccccc4Cl)c4cc([N+](=O)[O-])ccc4N3C2=O)CC1 [LOPRAZOLAM] | > 20 µM | > 20 µM
N[C@@H](C(=O)N[C@@H]1C(=O)N2C(C(=O)O)=C(Cl)CC[C@H]12)c1ccccc1 [LORACARBEF ANHYDROUS] | > 20 µM | > 20 µM
CCOC(=O)N1CCC(=C2c3ccc(Cl)cc3CCc3cccnc32)CC1 [LORATADINE] | > 20 µM | > 20 µM
O=C1Nc2ccc(Cl)cc2C(c2ccccc2Cl)=NC1O (stereo not drawn) [LORAZEPAM] | > 20 µM | > 20 µM
Clc1ccc(N2CCN(C/C=C/c3ccccc3)CC2)nn1 [LORCINADOL] | > 20 µM | > 20 µM
Cl/C(=C\n1cncn1)c1ccc(Cl)cc1Cl [LORECLEZOLE] | > 20 µM | > 20 µM
CCCCCN(CCCCC)C(=O)C(CCC(=O)O)NC(=O)c1ccc(Cl)c(Cl)c1 (stereo not drawn) [LORGLUMIDE] | > 20 µM | > 20 µM
C[C@H]1Oc2cc(cnc2N)-c2c(nn(C)c2C#N)CN(C)C(=O)c2ccc(F)cc21 [LORLATINIB] | > 20 µM | > 20 µM
CN1C(=O)C(O)N=C(c2ccccc2Cl)c2cc(Cl)ccc21 (stereo not drawn) [LORMETAZEPAM] | > 20 µM | > 20 µM
CN(C(=O)CNC(=O)CN)c1ccc(Cl)cc1C(=O)c1ccccc1Cl [LORZAFONE ANHYDROUS] | > 20 µM | > 20 µM
CCCCc1nc(Cl)c(CO)n1Cc1ccc(-c2ccccc2-c2nnn[nH]2)cc1 [LOSARTAN] | > 20 µM | > 20 µM
Cc1c(F)cc(C(=O)NC2CC2)cc1-c1ccc(C(=O)NCC(C)(C)C)cn1 [LOSMAPIMOD] | > 20 µM | > 20 µM
O=C(c1ccc(Nc2ccnc3cc(C(F)(F)F)ccc23)cc1)N1CCN(S(=O)(=O)c2ccc(F)cc2)CC1 [LOSULAZINE] | > 20 µM | > 20 µM
CC[C@H](C)C(=O)O[C@H]1C[C@@H](C)C=C2C=C[C@H](C)[C@H](CC[C@@H]3C[C@@H](O)CC(=O)O3)[C@H]21 [LOVASTATIN] | > 20 µM | > 20 µM
CN1CCN(C2=Nc3ccccc3Oc3ccc(Cl)cc32)CC1 [LOXAPINE] | > 20 µM | > 20 µM
CCCCCN(CCCOC)C(=O)C(CCC(=O)O)NC(=O)c1ccc(Cl)c(Cl)c1 (stereo not drawn) [LOXIGLUMIDE] | > 20 µM | > 20 µM
CNC(=O)c1cccc2cc(Oc3ccnc4cc(OCC5(N)CC5)c(OC)cc34)ccc12 [LUCITANIB] | > 20 µM | > 20 µM
CC(C)C(=O)OC[C@@]1(CCl)O[C@@H](n2ccc(N)nc2=O)[C@H](F)[C@@H]1OC(=O)C(C)C [LUMICITABINE] | > 20 µM | > 20 µM
CCNC(=O)c1noc(-c2cc(C(C)C)c(O)cc2O)c1-c1ccc(CN2CCOCC2)cc1 [LUMINESPIB] | > 20 µM | > 20 µM
Cc1ccc(Nc2c(F)cccc2Cl)c(CC(=O)O)c1 [LUMIRACOXIB] | > 20 µM | > 20 µM
OC[C@@H]1CCCN2CCCC[C@H]12 [LUPININE] | > 20 µM | > 20 µM
Cc1nc2ccccn2c(=O)c1CCN1CCc2oc3ccccc3c2C1 [LUSAPERIDONE] | > 20 µM | > 20 µM
